{"source": "ChEMBL document CHEMBL5528033", "about": "“Peptide-Drug Conjugates: An Emerging Direction for the Next Generation of Peptide Therapeutics” (J Med Chem, 2024)", "key": {"[1]": {"biological_target": "Kappa-type opioid receptor (Mus musculus, UniProt P33534)", "sequence (P33534 whole entry)": "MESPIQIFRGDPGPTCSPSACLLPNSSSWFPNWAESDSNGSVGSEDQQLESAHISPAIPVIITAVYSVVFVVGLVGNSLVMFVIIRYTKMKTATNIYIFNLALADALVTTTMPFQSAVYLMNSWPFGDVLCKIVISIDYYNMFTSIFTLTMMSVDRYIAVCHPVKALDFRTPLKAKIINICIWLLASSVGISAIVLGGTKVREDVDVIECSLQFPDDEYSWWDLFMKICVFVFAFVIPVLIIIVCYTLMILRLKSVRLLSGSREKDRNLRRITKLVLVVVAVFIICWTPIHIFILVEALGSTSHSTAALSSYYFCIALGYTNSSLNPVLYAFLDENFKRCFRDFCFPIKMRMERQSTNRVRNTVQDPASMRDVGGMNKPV", "assay": "Displacement of [3H]DPN from mouse KOR stably expressed in HEK293T cell membrane assessed as inhibition constant by radioligand binding assay", "assay_type": "cell membranes"}, "[2]": {"assay": "Stability in rat heart assessed as half life measured upto 120 mins", "assay_type": "ADME, tissue-based"}, "[3]": {"assay": "Stability of the compound assessed as half life at pH 6", "assay_type": "physicochemical", "details": "buffer"}, "[4]": {"assay": "Stability in rat plasma assessed as half life measured upto 120 mins", "assay_type": "ADME, cell-free"}, "[5]": {"assay": "Binding affinity to Dengue virus NS2B-NS3 protease assessed as inhibition constant"}}, "note": "Starred links: 1 amine or outer side, 2 acyl side, 3 side chain; linkers in the order of their positions; H or OH if unused. Positions of bridges follow the written chain, without caps; N, C: chain ends. Non-standard residues stand in square brackets, D forms with d. Residues, ends and D or L forms follow the SMILES beside them. *: point of attachment. DAMPA = CN(Cc1cnc2nc(N)nc(N)c2n1)c1ccc(C(=O)*)cc1; γGlu = O=C(O)[C@H](CCC(=O)[*:2])N[*:1]; Pen = CC(C)(S)[C@H](N)C(=O)O", "data": [{"molecule": "C[C@H](O)[C@@H]1NC(=O)[C@H](Cc2ccc(O)cc2)NC(=O)[C@@H](C)NC(=O)[C@@H](Cc2ccc(O)cc2)NC(=O)CSC[C@@H](C(=O)N[C@@H](C(=O)N[C@H](Cc2ccccc2)C(=O)N[C@@H]2CCC3C4Cc5ccc(O)c6c5C3(CCN4C)[C@H]2O6)[C@@H](C)O)NC(=O)[C@H]([C@H](C)O)NC1=O", "note": "(stereo partly specified)", "values": [{"measurement": "Ki", "setting": "[1]", "value": 72, "unit": "nM"}]}, {"molecule": "CC(C)C[C@@H]1NC(=O)[C@H](C(C)C)NC(=O)[C@H](CO)NC(=O)CNC(=O)CNC(=O)[C@H](CCCNC(=N)N)NC(=O)[C@@H]2CCCN2C(=O)[C@@H](NC(=O)CC[C@H](NC(=O)c2ccc(N(C)Cc3cnc4nc(N)nc(N)c4n3)cc2)C(=O)O)C(C)(C)SSC[C@@H](C(=O)O)NC(=O)CNC(=O)[C@H]([C@@H](C)O)NC(=O)[C@H](C(C)C)NC1=O", "note": "({DAMPA-γGlu}-[Pen]PRGGSVLVTGC-OH; disulfide 1-12)", "values": [{"measurement": "half-life", "setting": "[2]", "value": 38.1, "unit": "min"}, {"measurement": "half-life", "setting": "[3]", "value": 770, "unit": "min"}, {"measurement": "half-life", "setting": "[4]", "value": 43.8, "unit": "min"}]}, {"molecule": "C=CCN1CCC23c4c5ccc(O)c4O[C@H]2[C@H](NC(=O)[C@@H](Cc2ccccc2)NC(=O)[C@H](NC(=O)[C@@H]2CSCC(=O)N[C@H](Cc4ccc(O)cc4)C(=O)N[C@H](C)C(=O)N[C@@H](Cc4ccc(O)cc4)C(=O)N[C@@H]([C@H](C)O)C(=O)N[C@@H]([C@H](C)O)C(=O)N2)[C@@H](C)O)CCC3C1C5", "note": "(stereo partly specified)", "values": [{"measurement": "Ki", "setting": "[1]", "value": 3.9, "unit": "nM"}]}, {"molecule": "CCCC[C@@H](NC(=O)[C@H](CCCCN)NC(=O)[C@H](CCCNC(=N)N)NC(=O)c1ccc(/C=C(\\C#N)C(=O)NC2CC2)cc1)C(N)=O", "values": [{"measurement": "Ki", "setting": "[5]", "value": 4900, "unit": "nM"}]}]}
